What is called IC50 is the concentration needed to halve the response being measured.

The assay has as its target Short transient receptor potential channel 6 (Mus musculus) (UniProt Q61143). The assay can be described thus: TRPC6 inhibitor potency, dose response, cell-based, mouse TRPC6, HEK293, membrane potential (AID 2696). The note with it: TRPC6-expressing HEK293 cells, membrane potential dye fluorescence, acetylcholine-stimulated.

Short transient receptor potential channel 6 (Mus musculus), sequence (Q61143 whole entry, looked up): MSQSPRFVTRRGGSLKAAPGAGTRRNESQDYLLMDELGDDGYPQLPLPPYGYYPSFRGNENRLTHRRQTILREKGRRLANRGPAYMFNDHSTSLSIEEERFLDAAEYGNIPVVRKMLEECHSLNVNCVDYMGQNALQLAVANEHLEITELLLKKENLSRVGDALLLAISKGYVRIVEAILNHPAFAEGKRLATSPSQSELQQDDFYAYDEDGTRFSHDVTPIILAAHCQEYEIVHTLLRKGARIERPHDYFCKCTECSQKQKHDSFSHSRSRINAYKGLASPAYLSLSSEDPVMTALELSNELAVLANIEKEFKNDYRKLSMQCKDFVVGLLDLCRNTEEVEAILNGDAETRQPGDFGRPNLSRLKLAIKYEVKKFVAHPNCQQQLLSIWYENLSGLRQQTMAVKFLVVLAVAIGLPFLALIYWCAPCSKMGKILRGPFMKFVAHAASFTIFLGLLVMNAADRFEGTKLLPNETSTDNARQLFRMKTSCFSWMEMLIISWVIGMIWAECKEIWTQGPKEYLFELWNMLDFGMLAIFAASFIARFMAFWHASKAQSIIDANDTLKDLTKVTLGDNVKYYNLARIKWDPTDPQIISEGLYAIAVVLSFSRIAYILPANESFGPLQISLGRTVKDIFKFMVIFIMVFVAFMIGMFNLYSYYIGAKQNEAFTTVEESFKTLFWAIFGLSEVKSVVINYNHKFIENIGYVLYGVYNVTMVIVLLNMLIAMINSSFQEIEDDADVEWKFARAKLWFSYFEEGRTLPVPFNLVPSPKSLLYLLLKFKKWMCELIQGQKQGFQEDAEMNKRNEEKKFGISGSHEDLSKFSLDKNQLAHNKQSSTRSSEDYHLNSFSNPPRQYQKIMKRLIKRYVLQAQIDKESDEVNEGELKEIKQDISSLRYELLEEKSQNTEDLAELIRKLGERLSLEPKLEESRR

With `COc1cc2c(cc1O)CC[n+]1cc3c(OC)c(OC)ccc3cc1-2`, the IC50 is 50.1 µM. The figure for `CCCCCCn1c2c(c(=N)c3c1CCC3)CCC2` is 79.4 µM; for `CN(C)CCC(=O)N1c2ccccc2Sc2ccc(Cl)cc21` it is 8.91 µM. Under `CN(C)C(C)(C)C#CC(O)(c1ccccc1)c1ccccc1` stands 39.8 µM. The figure for `CC(C)CC1CCCCC1OC(=O)C[N+]1(C)CCCCC1` (configuration not stated) is 15.8 µM. For the molecule `CC(C)C(O)(C#CCN1CCCCCC1)c1ccccc1` (configuration not stated), the IC50 is 44.7 µM. As to `CCCC(CCC)C(=O)OC1C[C@H]2CC[C@@H](C1)[N+]2(C)C` (some centres not stated), the IC50 is 3.55 µM. Regarding `CC(C)N1CCC2(CC1)N=C(c1ccc3c(c1)OCO3)CC(c1cc(Cl)ccc1O)N2` (configuration not stated), the IC50 is 70.8 µM. For the molecule `CN(C)c1cc(NC(=O)CN2CCCC2)c2ccccc2n1`, the IC50 is 44.7 µM. The figure for `CCN(CC)c1ccc2cc(C(N)=O)/c(=N\NC(=O)c3ccncc3)oc2c1` is 50.1 µM; for `O=C(Nc1ccccc1)Nc1ncc([N+](=O)[O-])s1` it is 35.5 µM.

As for `C[N+]1(C)[C@@H]2CC[C@H]1CC(OC(=O)[C@@H](CO)c1ccccc1)C2` (some centres not stated), the IC50 was 0.02 µM.

As for `Cc1cc(Nc2cccc([N+](=O)[O-])c2)c2cccc(C)c2n1`, the IC50 was 44.7 µM. Under `O=C(NNS(=O)(=O)c1ccc(Cl)cc1)C1CCN(Cc2ccccc2)CC1` stands 35.5 µM; under `Cn1c(=O)c(C#N)c(-c2ccc(F)cc2)c2cc(C(=O)c3cc(Cl)cc(Cl)c3O)cnc21`, 44.7 µM. Under `CC1CCC(C(C)C)C(OCC[N+](C)(C)C)C1` (configuration not stated) stands 2.82 µM. As to `CC(C)Cn1c(=O)c(C(=O)Nc2ccncc2)c(O)c2ccccc21`, the IC50 is 3.16 µM. The figure for `CCN(CC)CCOC(=O)C1(c2ccccc2)CCCC1` is 15.8 µM.

As to `CCCCCCCCCCn1ccc(=N)cc1`, the IC50 was 39.8 µM.

Turning to `Cc1ccc(S(=O)(=O)NNC(=O)C2CCN(Cc3ccccc3)CC2)cc1`, the IC50 was 2.82 µM. Under `CCN(CC)CCCOC(=O)C(OC(C)C)(c1ccccc1)c1ccccc1` stands 3.98 µM; under `CN(C)CCn1c(C(=O)Nc2ccccc2)cc2ccccc21`, 39.8 µM.

As to `CCCCC(O)(CCN1CCOCC1)c1ccc(Cl)cc1` (configuration not stated), the IC50 was 44.7 µM. The figure for `CSCc1cc(N(C)c2ccccc2)nc(-c2ccccn2)n1` is 28.2 µM; for `Cc1nnc(-c2ccccc2)c(=O)n1/N=C/c1c(O)ccc2ccccc12` it is 79.4 µM; for `CN(C)CCN(C(=O)c1ccc2c(c1)OCCO2)c1nc2c(Cl)cccc2s1` it is 50.1 µM. Regarding `C[N+]1(C)CCC(OC(=O)C(c2ccccc2)c2ccccc2)CC1`, the IC50 is 0.28 µM.

Turning to `NCCCC(=O)N1c2ccccc2Sc2ccccc21`, the IC50 was 44.7 µM. The figure for `Nc1nc(N2CCN(C/C=C/c3ccccc3)CC2)nc2ccccc12` is 44.7 µM; for `CC[N+](C)(CC)CCC/C(=N/O)C(O)(c1ccccc1)c1ccccc1` it is 15.8 µM.

Consider `C[N+]1(CC#CC(O)(c2ccccc2)c2ccccc2)CCCC1`, for which the IC50 is 2.24 µM.

On to `COC(=O)c1ccc(NC2(C#N)C(=O)Nc3ccccc32)cc1` (configuration not stated), for which the IC50 is 50.1 µM.

Turning to `N=c1c(C(=O)NCCN2CCOCC2)cc2c(=O)n3ccccc3nc2n1CCc1ccccc1`, the IC50 is 50.1 µM. Under `Cc1nnc(SCCn2c(N3CCN(C)CC3)nc3c2c(=O)[nH]c(=O)n3C)s1` stands 50.1 µM; under `CCc1ccc(N=C2N=C(N)c3ccccc32)cc1`, 50.1 µM; under `N=c1c(C(=O)NCC2CCCO2)cc2c(=O)n3ccccc3nc2n1Cc1ccccc1Cl` (configuration not stated), 44.7 µM. The figure for `Cc1cc(N=Nc2ccccc2)c(NCC(O)C(O)C(O)CO)cc1C` (configuration not stated) is 50.1 µM; for `Cc1cc(N(CCO)CCO)ccc1N=Nc1cc(F)ccc1F` it is 50.1 µM; for `CCN(CC)CCNc1nc2cc(OC)c(OC)cc2c2nc(-c3ccccc3)nn12` it is 79.4 µM.

As to `CCOC(=O)c1ccc(NC(=O)CCc2ccc(CC)o2)cc1`, the IC50 was 79.4 µM.

In the case of `CCN1C(=O)/C(=C\N2CCCCCC2)SC1=S`, the IC50 is 14.1 µM. The figure for `Cc1onc(-c2ccccc2)c1C(=O)N/N=C/c1ccc([N+](=O)[O-])s1` is 39.8 µM. As for `CN1CCC(OC(c2ccccc2)c2ccccc2)CC1`, the IC50 was 15.8 µM. `COc1cc(-c2nc3ccc(C)cn3c2Nc2ccc3c(c2)OCCO3)ccc1O`: the IC50 is 44.7 µM. The figure for `CC[N+](C)(C)CC/C=C1/c2ccccc2Sc2ccc(Cl)cc21` is 1.58 µM; for `Cc1cccc(CCNCc2cc3cccc(C)c3[nH]c2=O)c1` it is 50.1 µM; for `CCCCn1c(-c2ccc([N+](=O)[O-])cc2)n[nH]c1=S` it is 6.31 µM. With `CCN(CC)CCSc1nnc(Nc2ccccc2)n1-c1ccccc1`, the IC50 is 44.7 µM. The figure for `CCC(C)N(CCNC(=O)CC1Oc2ccccc2NC1=O)C1CCCCC1` (configuration not stated) is 28.2 µM. Consider `O=C1Nc2ccccc2OC1CC(=O)N1CCN(c2cccc(C(F)(F)F)c2)CC1` (configuration not stated), for which the IC50 was 79.4 µM.

Take `COc1ccc(C(=O)C2CCCN(Cc3cccn3-c3ccccn3)C2)cc1F` (configuration not stated): the IC50 is 79.4 µM.

Turning to `O=[N+]([O-])c1ccc(N=Nc2c(Cl)cc(O)cc2Cl)cc1`, the IC50 is 25.1 µM.

For `OC(C#CCCN1CCCCC1)(c1ccccc1)C1CCCCC1` (configuration not stated), the IC50 was 3.55 µM.

Take `CN(CCOC(=O)C1c2ccccc2Oc2ccccc21)C(C)(C)C`: the IC50 was 0.89 µM. The figure for `CN(C)c1ccc(C2N(C)C(=O)c3ccccc3N2C)cc1` (configuration not stated) is 79.4 µM; for `Cc1c(C(=O)OCCN2CCCCC2)oc2ccccc12` it is 25.1 µM; for `Cc1cc(C)n(-c2nc(SCCN(C)C)c3c4c(sc3n2)COC(C)(C)C4)n1` it is 79.4 µM. Under `Cc1ccc(C(=O)OCCc2sc[n+](Cc3ccccc3)c2C)cc1` stands 17.8 µM. Regarding `CCOC(=O)c1cn(C2CC2)c2c(F)c(NCCCN(C)C)c(F)cc2c1=O`, the concentration for half-maximal inhibition (IC50) is 70.8 µM.

As to `Cc1onc(-c2c(F)cccc2Cl)c1C(=O)NC(=S)Nc1c(C)n(C)n(-c2ccccc2)c1=O`, the IC50 is 39.8 µM. The figure for `CC(C)C(O)(C#CCN1CCCCC1)c1ccccc1` (configuration not stated) is 11.2 µM; for `Cc1cc(C)c2nc(N3CCC(C(=O)NCCCN4CCCCC4)CC3)sc2c1` it is 39.8 µM. As for `CN(C)CCNc1c2c(c(C#N)c3nc4ccccc4n13)CCCC2`, the IC50 was 79.4 µM. Under `CCN(CC)CCNC(=O)c1ccc(NC(=O)c2cccc(S(=O)(=O)Nc3ccc(C)cc3)c2)cc1` stands 31.6 µM.

With `CC(NC(=O)Nc1nnc(C(F)(F)F)s1)(C(F)(F)F)C(F)(F)F`, the concentration for half-maximal inhibition (IC50) is 22.4 µM.

Consider `CCN(CC)CCC#CC(O)(c1ccccc1)c1ccccc1`, for which the IC50 is 14.1 µM. Consider `Cc1ccc(S(=O)(=O)n2c(N)nc3ccccc32)cc1`, for which the IC50 was 17.8 µM. The figure for `CCN(CC)CCC/C(=N\O)C(O)(c1ccccc1)c1ccccc1` is 7.94 µM. The figure for `C#CC[N+]1(C)[C@@H]2CC(OC(=O)C(CO)c3ccccc3)C[C@H]1C(O)C2` (some centres not stated) is 3.55 µM.

Turning to `CCOC(=O)c1cnc2c(Cl)cccc2c1NCCN(C)C`, the IC50 was 63.1 µM. Consider `O=C(c1ccc(C(=O)N2CCCc3ccccc32)s1)N1CCCc2ccccc21`, for which the IC50 was 44.7 µM. The figure for `CCC(C)N(CCNC(=O)CC1Oc2ccc(C)cc2NC1=O)C1CCCCC1` (configuration not stated) is 15.8 µM; for `Oc1ccc(CN2CCc3ccccc3C2)c2cccnc12` it is 15.8 µM.

With `CC1CCCN1CC#CC(O)(c1ccccc1)c1ccccc1` (configuration not stated), the IC50 was 11.2 µM.

For `CCN(CC)CCCNc1nc(-c2ccccc2)nc2ccccc12`, the IC50 was 79.4 µM. The figure for `CCC(CO)(C(=O)OC1C[N+]2(C)CCC1CC2)c1ccccc1` (configuration not stated) is 1.58 µM; for `CC1(C(O)(C#CC[N+]2(C)CCCCC2)c2ccccc2)CCCC1` (configuration not stated) it is 0.14 µM. Turning to `O=C(CNCCC1=CCCCC1)Nc1ccc(N2CCCCCC2)cc1`, the IC50 is 70.8 µM. The figure for `CC[N+]1(C)CCC(=C2c3ccccc3CC(=O)c3sccc32)CC1` (configuration not stated) is 12.6 µM; for `CCN(CC)CCn1c(NC(=O)c2ccccc2O)nc2ccccc21` it is 31.6 µM.

Take `Cn1c(=O)[nH]c(=O)c2c1nc(N1CCCCCC1)n2CCN1CCCCCC1`: the IC50 is 39.8 µM. As for `Cc1cccc(-c2nc(NCCCN(C)C)c3ccccc3n2)c1`, the IC50 was 70.8 µM. Under `CC(C)c1ccc(N2C(=O)CC(Sc3nc4ccccc4o3)C2=O)cc1` (configuration not stated) stands 44.7 µM. Regarding `COC(=O)C(NC(=O)c1ccc(C)cc1)(Nc1cccc(C)n1)C(F)(F)F` (configuration not stated), the IC50 was 50.1 µM. For the molecule `COc1ccccc1OCCNCC(O)COc1cccc2[nH]c3ccccc3c12` (configuration not stated), the IC50 was 44.7 µM. The figure for `Cc1cc(C)c2nc(C)cc(Nc3ccc(C(=O)N4CCOCC4)cc3)c2c1` is 79.4 µM; for `Oc1ccccc1Oc1ncc(Br)c(N2CCOCC2)n1` it is 39.8 µM. The figure for `Nc1ccc(C(=O)OCc2nc3ccccc3s2)cc1` is 79.4 µM. The figure for `Cc1cccc(NS(=O)(=O)c2cccc(C(=O)N3CCN(c4ccccn4)CC3)c2)c1` is 50.1 µM; for `C/C(=N/OC(=O)c1c(-c2c(Cl)cccc2Cl)noc1C)c1cnccn1` it is 31.6 µM; for `Cc1cccn2c(=O)c3cc(C(=O)NCc4ccco4)c(=N)n(C(C)C)c3nc12` it is 44.7 µM. Take `CC(C)NCC(O)Cn1c2c(c3ccccc31)CCc1c-2cnn1-c1ccccc1` (configuration not stated): the IC50 is 79.4 µM. For `COCC(C)NC(=O)c1ccc(CN2CCc3ccccc3C2)cc1` (configuration not stated), the IC50 was 44.7 µM.

Turning to `CCOC(=O)N1CCC(N2Cc3cccc(C(=O)Nc4ccc(CC)cc4)c3C2=O)CC1`, the IC50 is 44.7 µM. Regarding `O=C(c1ccccc1)N1CCN(C2C3CC4CC(C3)CC2C4)CC1` (configuration not stated), the IC50 is 44.7 µM. For the molecule `CCOC(=O)c1sc(=S)n(-c2ccccc2Cl)c1SC`, the IC50 was 12.6 µM. The figure for `COCCCNC(=S)N1CCCN(c2nc3cc(C)ccc3cc2C#N)CC1` is 39.8 µM; for `CCOC(=O)N1CCN(S(=O)(=O)c2cc(Br)cnc2N)CC1` it is 19.9 µM.

With `Cc1cccc(OCc2nnc(SCc3cc(=O)n4cc(Br)ccc4n3)o2)c1`, the IC50 is 70.8 µM. `c1ccc(CNc2c3ccccc3nc3ccccc23)cc1`: the IC50 is 70.8 µM. As to `Cn1c(NCc2c[nH]c3ccccc23)nc2ccccc21`, the IC50 was 50.1 µM.

For `CC(C)(C)c1ccc(OCCCCCCN2CCNCC2)cc1`, the IC50 was 50.1 µM.

The values above are taken from PubChem BioAssay AID2696 (Johns Hopkins Ion Channel Center, 2010).
